# Experimental data: US20200123190A1
# Test system: human pancreatic cancer cells (MIA-Paca-2)
# Test: Cell growth inhibitory effect, alamarBlue
# Format: cell-based
# Settings: MIA-Paca-2, cultured for 3 days
# Procedure: Each of the test compounds (DMSO solutions in various concentrations) was added to 100 μL of a culture solution containing human pancreatic cancer cells (MIA-Paca-2) (cell count: about 5×10^3 cells) and cultured for 3 days. The cell growth inhibitory effect was investigated by fluorescence color development using alamarBlue reagent. Each of their IC50 values was determined.
Compound,"IC50 (Homo sapiens, 72 h)",IC50
"Nc1ccn([C@@H]2O[C@H](CO)[C@@H](O)C2(F)F)c(=O)n1 [Gemcitabine, 2′-Deoxy-2′,2′-difluorocytidine, reference compound]",7.4 µM,–
"O,O′— Di (4-chloro)benzyl 2′-deoxy-2′,2′-difluoro-5′-cytidylate [Compound (2)]",–,18 µM
"O,O′— Di(4-bromo)benzyl 2′-deoxy-2′,2′-difluoro-5′-cytidylate [Compound (3)]",–,21.8 µM
"O,′-Di (4-fluoro)benzyl 2′-deoxy-2′,2′-difluoro-5′-cytidylate [Compound (1)]",–,9.8 µM
